Measurements: patent publication USRE48461E1, “Modulation of androgen receptor expression” (Ionis Pharmaceuticals, Inc., priority 2012, dated 2021)
Oligonucleotides are written 5' to 3', each unit as a sugar letter and its base; * is a phosphorothioate linkage, no mark a phosphodiester; rarer units and linkages stand in square brackets, end groups in braces. Plain capitals give the bases only. k = constrained ethyl (cEt); [5mC] = 5-methylcytosine; d = 2'-deoxy (DNA)

How the values were obtained:
[1] = tested on: AR mRNA; experiment: Antisense inhibition of human AR in HuVEC cells, single concentration (electroporation, qRT-PCR RTS3559); type: cell-based
Procedure, shortened: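 AR mRNA levels were measured with human primer-probe set RTS3559 and adjusted for total RNA (RIBOGREEN). Cells were HuVEC, with each antisense oligonucleotide delivered by electroporation at one concentration.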

[2] = tested on: AR mRNA; experiment: AR mRNA in LnCaP cells by free uptake (hAR_LTS00943); type: cell-based, human; details: 24 hrs
Method: Cells were plated at a concentration of 4,000 cells/well in 96-well plates. ISIS oligonucleotides, specified in Table 68, were added individually at 0.02 μM, 0.10 μM, 0.50 μM, 2.50 μM, or 10.00 μM. After an incubation period of 24 hrs, mRNA levels were measured using primer probe set hAR_LTS00943.

[3] = tested on: full-length AR; experiment: Western blot of full-length AR in C4-2B cells (time course); type: cell-based, human; details: 24 hours and 48 hours, normalized to GAPDH
Method: Protein levels in the cells were also analyzed. The cells were harvested in RIPA buffer containing protease inhibitors. The presence of bands for full-length AR was detected by western blot using AR antibody (N-20, SC-816, Santa Cruz Biotechnology).

[4] = tested on: testosterone; experiment: Serum testosterone levels in cynomolgus monkeys (ELISA); type: in vivo; details: cynomolgus monkey, 40 mg/kg subcutaneously, 40 mg/kg
Method: Serum testosterone protein levels were measured in the plasma with an ELISA kit (Enzo Life Sciences), following the manufacturer's instructions.

[5] = tested on: AR mRNA; experiment: AR mRNA expression in MDA-MB-453 breast cancer orthotopic model; type: in vivo, human; details: Study 2; tumor tissue, normalized to human actin; 50 mg/kg s.c. 5 days per week for 2 weeks
[6] = cynomolgus monkey, in vivo, sc, 40 mg/kg
[7] = cynomolgus monkey, in vivo, sc, 40 mg/kg; remark: listed apart in the source
[8] = cynomolgus monkey, in vivo, sc, 40 mg/kg; remark: listed apart in the source
[9] = cynomolgus monkey, in vivo, sc, 40 mg/kg; remark: listed apart in the source
Method: The monkeys were 2-4 years old and weighed between 2 and 4 kg. Thirteen groups of four randomly assigned male cynomolgus monkeys each were injected subcutaneously with ISIS oligonucleotide or PBS. PBS solution or ISIS oligonucleotides, at a dose of 40 mg/kg, were administered with a loading regimen consisting of four doses on the first week of the study (days 1, 3, 5, and 7), followed by a maintenance regimen consisting of once weekly administration starting on Day 14 (weeks 2 to 6). Subcutaneous injections were performed in clock-wise rotations at 4 sites on the back; one site per dose. The injection sites were delineated by tattoo, while sedated using ketamine, and were separated by a minimum of 3 cm.
To evaluate any inflammatory effect of ISIS oligonucleotides in cynomolgus monkeys, the monkeys were fasted overnight. Approximately, 1.5 mL of blood samples were collected from all the study groups on day 44. Blood was collected in tubes without anticoagulant for serum separation. The tubes were kept at room temperature for a minimum of 90 min and then centrifuged at 3,000 rpm for 10 min. C-reactive protein (CRP), which is synthesized in the liver and which serves as a marker of inflammation, was measured on day 43 using a Toshiba 120FR NEO chemistry analyzer (Toshiba Co., Japan). Complement C3 was also measured similarly, and the data is presented as a percentage of baseline values.

[10] = cynomolgus monkey, in vivo
Method: Prior to the study, the monkeys were kept in quarantine for a 30-day period, during which the animals were observed daily for general health. The monkeys were 2-4 years old and weighed between 2 and 4 kg. Thirteen groups of four randomly assigned male cynomolgus monkeys each were injected subcutaneously with ISIS oligonucleotide or PBS. PBS solution or ISIS oligonucleotides, at a dose of 40 mg/kg, were administered with a loading regimen consisting of four doses on the first week of the study (days 1, 3, 5, and 7), followed by a maintenance regimen consisting of once weekly administration starting on Day 14 (weeks 2 to 6). Subcutaneous injections were performed in clock-wise rotations at 4 sites on the back; one site per dose. The injection sites were delineated by tattoo, while sedated using ketamine, and were separated by a minimum of 3 cm.
The concentrations of the full-length oligonucleotide in the kidney and the liver of select treatment groups were measured. The method used is a modification of previously published methods (Leeds et al., 1996; Geary et al., 1999) which consist of a phenol-chloroform (liquid-liquid) extraction followed by a solid phase extraction.

[11] = Table 19, 500 nM oligonucleotide, electroporation, approximately 24 hours, relative to untreated control
[12] = Table 20, 500 nM oligonucleotide, electroporation, approximately 24 hours, relative to untreated control
[13] = Table 21, 500 nM oligonucleotide, electroporation, approximately 24 hours, relative to untreated control
[14] = Table 22, 500 nM oligonucleotide, electroporation, approximately 24 hours, relative to untreated control
[15] = Table 23, 500 nM oligonucleotide, electroporation, approximately 24 hours, relative to untreated control
[16] = Table 24, 1,000 nM oligonucleotide, electroporation, approximately 24 hours, relative to untreated control
[17] = Table 25, 1,000 nM oligonucleotide, electroporation, approximately 24 hours, relative to untreated control
[18] = Table 27, 1,000 nM oligonucleotide, electroporation, approximately 24 hours, relative to untreated control
[19] = Table 28, 1,000 nM oligonucleotide, electroporation, approximately 24 hours, relative to untreated control

Row | Substance | % inhibition ([1]; 500 nM ASO, ~24 h, Table 16) [%] | % inhibition ([1]; 500 nM ASO, ~24 h, Table 17) [%] | % inhibition ([1]; 500 nM ASO, ~24 h, Table 18) [%] | % inhibition ([1]; 1,000 nM ASO, ~24 h, Table 13) [%] | % inhibition ([1]; 1,000 nM ASO, ~24 h, Table 26) [%] | % inhibition [1, 11] [%] | % inhibition [1, 12] [%] | % inhibition [1, 13] [%] | % inhibition [1, 14] [%] | % inhibition [1, 15] [%] | % inhibition [1, 16] [%] | % inhibition [1, 17] [%] | % inhibition [1, 18] [%] | % inhibition [1, 19] [%] | Percent inhibition of AR mRNA ([2]; 0.02 μM) [%] | Percent inhibition of AR mRNA ([2]; 0.1 μM) [%] | Percent inhibition of AR mRNA ([2]; 0.5 μM) [%] | Percent inhibition of AR mRNA ([2]; 10 μM) [%] | full-length AR protein (western blot) [3] | Serum testosterone level [4] [ng/mL] | other results
1 | 549372 (kA*kA*kG*dT*dT*dG*dT*dA*dG*dT*dA*dG*dT*k[5mC]*kG*k[5mC]) [compound 549372] | 47 | 40 | 26 | 64 | 58 | 39 | 23 | 37 | 46 | 25 | 63 | 59 | 70 | 54 | 0 | 0 | 21 | 78 |  |  | % inhibition ([1]; 500 nM ASO, electroporation, ~24 h, Table 1): 92%
2 | TTGATTTAATGGTTGC [ISIS 560131] (MOE and (S)-cEt gapmer chemistry, further chemistry not given here) |  |  |  |  |  |  |  |  |  |  |  |  |  |  |  |  |  |  | significantly reduced | 14.7 | AR RNA expression inhibited compared to the control group [5]: 35%; Body Wt [6]: 2.4 kg; Heart weight [6]: 9.8 g; Kidney weight [6]: 12 g; Liver weight [6]: 58 g; Mesenteric lymph nodes weight [6]: 2.0 g; Spleen weight [6]: 2.5 g; ALT [7]: 68 IU/L; AST [7]: 87 IU/L; Albumin [7]: 4.0 g/dL; Plasma BUN [8]: 23.7 mg/dL; Plasma Creatinine [8]: 0.84 mg/dL; C3 (% of baseline) [9]: 100 % of baseline; CRP [9]: 1.7 mg/dL; K/L ratio [10]: 2.6; Oligonucleotide concentration, Liver ([10]; sc, 40 mg/kg): 793 μg/g tissue
3 | TGATTTAATGGTTGCA [ISIS 569236] (cEt/MOE gapmer chemistry, further chemistry not given here) |  |  |  |  |  |  |  |  |  |  |  |  |  |  |  |  |  |  | significantly reduced | 12.7 | AR RNA expression inhibited compared to the control group [5]: 19%; Body Wt [6]: 2.4 kg; Heart weight [6]: 8.4 g; Kidney weight [6]: 12 g; Liver weight [6]: 56 g; Mesenteric lymph nodes weight [6]: 2.4 g; Spleen weight [6]: 3.2 g; ALT [7]: 35 IU/L; AST [7]: 45 IU/L; Albumin [7]: 4.1 g/dL; Plasma BUN [8]: 24.9 mg/dL; Plasma Creatinine [8]: 0.87 mg/dL; C3 (% of baseline) [9]: 103 % of baseline; CRP [9]: 2.6 mg/dL; Oligonucleotide concentration, Kidney ([10]; sc, 40 mg/kg): 1282 μg/g tissue; Oligonucleotide concentration, Liver ([10]; sc, 40 mg/kg): 898 μg/g tissue
4 | 549458 (kG*kT*kT*dG*dA*dT*dT*dT*dA*dA*dT*dG*dG*kT*kT*kG) [compound 549458] | 60 | 46 | 48 | 87 | 79 | 50 | 54 | 47 | 39 | 51 | 88 | 76 | 76 | 65 | 4 | 14 | 67 | 89 |  |  | % inhibition ([1]; 250 nM ASO, ~24 h, Table 7): 71%; % inhibition ([1]; 500 nM ASO, electroporation, ~24 h, Table 2): 95%; % inhibition ([1]; 500 nM ASO, ~24 h, Table 5): 94%
